Measurements: US4683237A, “Fluoroalkyl esters of dihydrolysergic acid useful as 5HT2 receptor antagonists” (Eli Lilly and Company, priority 1985, dated 1987)
Structures can show the parent of a compound that is named as a salt.

Key:
5HT2 receptors [1] = details: in words; mediated by 5HT2 receptors; Cohen I; cited from earlier work
[2] = system: vascular alpha adrenergic, dopaminergic and histaminergic receptors; details: in words; Cohen I; cited from earlier work
5HT2 receptors [3] = details: in words; Garbrecht compounds; cited from earlier work
5HT2 receptors [4] = molecular target: T1, 5HT2 receptors (Rattus norvegicus, UniProt P14842); assay: Antagonism of serotonin contraction in isolated rat external jugular vein (apparent antagonist dissociation constant); design: species or system Male Wistar rats; details: serotonin agonist, antagonist incubated one hour, 37° C., read-out: -log KB ± S.E. (apparent antagonist dissociation constant) (converted)
T1 construct: Contraction to serotonin was evaluated in the jugular vein since this tissue produces marked responses to serotonin in the absence of alpha receptors; from tissue; host or cells: external jugular vein of male Wistar rats
Protocol: An initial optimum resting force of 1 and 4 g was applied to the jugular vein and aorta, respectively. […] Exp. Ther., 205, 400 (1978). Alpha receptor antagonist activity was evaluated in the aorta.
The -log KB ±S.E. value obtained for 1-fluoromehtyl-2-fluoroethyl 1-isopropyl-9,10-dihydrolysergate maleate was 8.97±0.22.

T1 sequence (P14842 whole entry): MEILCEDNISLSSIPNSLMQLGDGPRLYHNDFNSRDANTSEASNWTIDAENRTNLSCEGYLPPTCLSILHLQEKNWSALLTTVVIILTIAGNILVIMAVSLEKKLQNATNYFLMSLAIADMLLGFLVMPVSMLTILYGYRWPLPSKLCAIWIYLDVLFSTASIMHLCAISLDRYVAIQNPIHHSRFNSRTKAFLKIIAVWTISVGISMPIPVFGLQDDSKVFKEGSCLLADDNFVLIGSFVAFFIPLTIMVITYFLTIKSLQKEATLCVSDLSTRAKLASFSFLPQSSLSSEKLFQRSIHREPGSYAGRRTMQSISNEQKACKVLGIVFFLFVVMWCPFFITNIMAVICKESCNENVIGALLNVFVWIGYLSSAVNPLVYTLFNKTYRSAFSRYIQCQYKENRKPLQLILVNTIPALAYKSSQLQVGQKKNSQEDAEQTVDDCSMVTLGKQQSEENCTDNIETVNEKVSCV

For `CC(O)C(C)OC(=O)[C@@H]1C[C@@H]2c3cccc4c3c(cn4C(C)C)C[C@H]2N(C)C1` (stereo partly drawn) [LY53857, 1-isopropyl-6-methyl-8β-(1-methyl-2-hydroxy)propoxycarbonyl-5R-ergoline], the “antagonism of vascular contraction to serotonin” value (5HT2 receptors [1]) is given as “potent antagonist of vascular contraction to serotonin”, the “affinity for vascular alpha adrenergic, dopaminergic and histaminergic receptors” value [2] is given as “minimal affinity” and the “peripheral serotonin antagonist activity against 5HT2 receptors” value (5HT2 receptors [3]) is given as “most active peripheral serotonin antagonist from Garbrecht”.
For `CC(C)n1cc2c3c(cccc31)[C@H]1C[C@@H](C(=O)OC(CF)CF)CN(C)[C@@H]1C2` [1-fluoromethyl-2-fluoroethyl-1-isopropyl-9,10-dihydrolysergate maleate], the Kb (5HT2 receptors [4]) was 1.07 nM.
